Results: ChEMBL document CHEMBL5506074, “Discovery and Optimization of Tetrahydroisoquinoline Derivatives To Enhance Lysosome Biogenesis as Preclinical Candidates for the Treatment of Alzheimer's Disease” (J Med Chem, 2024)
Activity calls are given as the source filed them. The rule behind the calls is not given here.

Legend:
[1] = Induction of TFEB nuclear translocation in human HeLa cells expressing EGFP at 10 uM measured at 3 hrs by fluorescence microscopic analysis; format: functional
[2] = Induction of TFEB nuclear translocation in human HeLa cells expressing EGFP at 10 uM measured at 6 hrs by fluorescence microscopic analysis; format: functional
[3] = Induction of TFEB nuclear translocation in human HeLa cells expressing EGFP at 30 uM measured at 3 hrs by fluorescence microscopic analysis; format: functional
[4] = Induction of TFEB nuclear translocation in human HeLa cells expressing EGFP at 30 uM measured at 6 hrs by fluorescence microscopic analysis; format: functional
[5] = Tmax in ICR mouse at 20 mg/kg, po measured upto 24 hrs by LC-MS/MS analysis; format: ADME, organism-based; conditions: in vivo
[6] = Tmax in ICR mouse at 10 mg/kg, ip measured upto 24 hrs by LC-MS/MS analysis; format: ADME, organism-based; conditions: in vivo
[7] = Half life in ICR mouse at 20 mg/kg, po measured upto 24 hrs by LC-MS/MS analysis; format: ADME, organism-based; conditions: in vivo
[8] = Half life in ICR mouse at 10 mg/kg, ip measured upto 24 hrs by LC-MS/MS analysis; format: ADME, organism-based; conditions: in vivo
[9] = Cmax in ICR mouse at 20 mg/kg, po measured upto 24 hrs by LC-MS/MS analysis; format: ADME, organism-based; conditions: in vivo
[10] = Cmax in ICR mouse at 10 mg/kg, ip measured upto 24 hrs by LC-MS/MS analysis; format: ADME, organism-based; conditions: in vivo
[11] = AUC (0 to t) in ICR mouse at 20 mg/kg, po measured upto 24 hrs by LC-MS/MS analysis; format: ADME, organism-based; conditions: ICR, in vivo
[12] = AUC (0 to t) in ICR mouse at 10 mg/kg, ip measured upto 24 hrs by LC-MS/MS analysis; format: ADME, organism-based; conditions: in vivo
[13] = AUC (0 to t) in ICR mouse at 5 mg/kg, iv measured upto 24 hrs by LC-MS/MS analysis; format: ADME, organism-based; conditions: ICR, in vivo
[14] = Clearance in ICR mouse at 5 mg/kg, iv measured upto 24 hrs by LC-MS/MS analysis; format: ADME, organism-based; conditions: in vivo
[15] = Bioavailability in ICR mouse at 5 mg/kg, ip measured upto 24 hrs by LC-MS/MS analysis; format: ADME, organism-based; conditions: in vivo
[16] = Oral bioavailability in ICR mouse at 20 mg/kg measured upto 24 hrs by LC-MS/MS analysis; format: ADME, organism-based; conditions: ICR, in vivo
[17] = Ratio of drug concentration in ICR mouse brain to plasma at 10 mg/kg, ip measured upto 24 hrs by LC-MS/MS analysis; format: ADME, organism-based; conditions: brain and plasma, read-out: BPR
[18] = Ratio of drug concentration in ICR mouse brain to plasma at 5 mg/kg, iv measured upto 24 hrs by LC-MS/MS analysis; format: ADME, organism-based; conditions: brain and plasma, read-out: BPR
HeLa [19] = assay: Induction of lysosome biogenesis in human HeLa cells assessed as increase in number of acidified lysosomes at 10 uM incubated for 24 hrs by LysiTracker red staining based flow cytometry analysis; format: functional, cell-based
HeLa [20] = assay: Upregulation of LAMP1 mRNA expression in human HeLa cells at 10 uM incubated for 24 hrs by qRT-PCR analysis; format: functional, cell-based
HeLa [21] = assay: Upregulation of HEXA mRNA expression in human HeLa cells at 10 uM incubated for 24 hrs by qRT-PCR analysis; format: functional, cell-based
HeLa [22] = assay: Upregulation of CTSD mRNA expression in human HeLa cells at 10 uM incubated for 24 hrs by qRT-PCR analysis; format: functional, cell-based
HeLa [23] = assay: Upregulation of CTSF mRNA expression in human HeLa cells at 10 uM incubated for 24 hrs by qRT-PCR analysis; format: functional, cell-based
HeLa [24] = assay: Upregulation of LC3B mRNA expression in human HeLa cells at 10 uM incubated for 24 hrs by qRT-PCR analysis; format: functional, cell-based
HeLa [25] = assay: Upregulation of OPTN mRNA expression in human HeLa cells at 10 uM incubated for 24 hrs by qRT-PCR analysis; format: functional, cell-based
HeLa [26] = assay: Upregulation of p62 mRNA expression in human HeLa cells at 10 uM incubated for 24 hrs by qRT-PCR analysis; format: functional, cell-based
HeLa [27] = assay: Upregulation of […] mRNA expression in human HeLa cells at 10 uM incubated for 24 hrs by qRT-PCR analysis; format: functional, cell-based
HeLa [28] = assay: Upregulation of ATG2A mRNA expression in human HeLa cells at 10 uM incubated for 24 hrs by qRT-PCR analysis; format: functional, cell-based
HeLa [29] = assay: Upregulation of GLA mRNA expression in human HeLa cells at 10 uM incubated for 24 hrs by qRT-PCR analysis; format: functional, cell-based
HeLa [30] = assay: Upregulation of Atg16L1 mRNA expression in human HeLa cells at 10 uM incubated for 24 hrs by qRT-PCR analysis; format: functional, cell-based
HeLa [31] = assay: Upregulation of UVRAG mRNA expression in human HeLa cells at 10 uM incubated for 24 hrs by qRT-PCR analysis; format: functional, cell-based
HeLa [32] = assay: Upregulation of LAMP1 mRNA expression in TFEB knockout human HeLa cells at 10 uM incubated for 24 hrs by qRT-PCR analysis; format: functional, cell-based
HeLa [33] = assay: Upregulation of HEXA mRNA expression in TFEB knockout human HeLa cells at 10 uM incubated for 24 hrs by qRT-PCR analysis; format: functional, cell-based
HeLa [34] = assay: Upregulation of CTSD mRNA expression in TFEB knockout human HeLa cells at 10 uM incubated for 24 hrs by qRT-PCR analysis; format: functional, cell-based
HeLa [35] = assay: Upregulation of CTSF mRNA expression in TFEB knockout human HeLa cells at 10 uM incubated for 24 hrs by qRT-PCR analysis; format: functional, cell-based
HeLa [36] = assay: Upregulation of LC3B mRNA expression in TFEB knockout human HeLa cells at 10 uM incubated for 24 hrs by qRT-PCR analysis; format: functional, cell-based
HeLa [37] = assay: Upregulation of OPTN mRNA expression in TFEB knockout human HeLa cells at 10 uM incubated for 24 hrs by qRT-PCR analysis; format: functional, cell-based
HeLa [38] = assay: Upregulation of p62 mRNA expression in TFEB knockout human HeLa cells at 10 uM incubated for 24 hrs by qRT-PCR analysis; format: functional, cell-based
HeLa [39] = assay: Upregulation of […] mRNA expression in TFEB knockout human HeLa cells at 10 uM incubated for 24 hrs by qRT-PCR analysis; format: functional, cell-based
HeLa [40] = assay: Upregulation of ATG2A mRNA expression in TFEB knockout human HeLa cells at 10 uM incubated for 24 hrs by qRT-PCR analysis; format: functional, cell-based
HeLa [41] = assay: Upregulation of GLA mRNA expression in TFEB knockout human HeLa cells at 10 uM incubated for 24 hrs by qRT-PCR analysis; format: functional, cell-based
HeLa [42] = assay: Upregulation of Atg16L1 mRNA expression in TFEB knockout human HeLa cells at 10 uM incubated for 24 hrs by qRT-PCR analysis; format: functional, cell-based
HeLa [43] = assay: Upregulation of UVRAG mRNA expression in TFEB knockout human HeLa cells at 10 uM incubated for 24 hrs by qRT-PCR analysis; format: functional, cell-based
[44] = Volume of distribution at steady state in ICR mouse measured upto 24 hrs by LC-MS/MS analysis; format: ADME; conditions: in vivo, read-out: Vdss
[45] = molecular target: Cyclin-dependent kinase 9 (Homo sapiens) (UniProt P50750); assay: Inhibition of CDK9 in human SH-SY5Y cells assessed as decrease in Rpb1 phosphorylation at 10 uM incubated for 6 hrs by immunoblotting analysis; format: cell-based
HeLa [46] = assay: Cytotoxicity against human HeLa cells assessed as effect on cell viability at 10 uM incubated for 24 hrs; format: functional, cell-based
SH-SY5Y = assay: Cytotoxicity against human SH-SY5Y cells assessed as effect on cell viability at 10 uM incubated for 24 hrs; format: functional, cell-based
[47] = tested on: Primary neocortical neuron; assay: Cytotoxicity against mouse Primary neocortical neuron cells assessed as effect on cell viability at 10 uM incubated for 24 hrs; format: functional, cell-based
HeLa [48] = assay: Induction of cell cycle arrest in human HeLa cells assessed as effect on LAMP1 level at 10 uM incubated for 12 hrs by qRT-PCR analysis; format: functional, cell-based
HeLa [49] = assay: Induction of cell cycle arrest in human HeLa cells assessed as effect on CDK4 level at 10 uM incubated for 12 hrs by qRT-PCR analysis; format: functional, cell-based
HeLa [50] = assay: Induction of cell cycle arrest in human HeLa cells assessed as effect on CDK7 level at 10 uM incubated for 12 hrs by qRT-PCR analysis; format: functional, cell-based
HeLa [51] = assay: Induction of cell cycle arrest in human HeLa cells assessed as effect on p21 level at 10 uM incubated for 12 hrs by qRT-PCR analysis; format: functional, cell-based

Sequence of Cyclin-dependent kinase 9 (Homo sapiens) (P50750 whole entry): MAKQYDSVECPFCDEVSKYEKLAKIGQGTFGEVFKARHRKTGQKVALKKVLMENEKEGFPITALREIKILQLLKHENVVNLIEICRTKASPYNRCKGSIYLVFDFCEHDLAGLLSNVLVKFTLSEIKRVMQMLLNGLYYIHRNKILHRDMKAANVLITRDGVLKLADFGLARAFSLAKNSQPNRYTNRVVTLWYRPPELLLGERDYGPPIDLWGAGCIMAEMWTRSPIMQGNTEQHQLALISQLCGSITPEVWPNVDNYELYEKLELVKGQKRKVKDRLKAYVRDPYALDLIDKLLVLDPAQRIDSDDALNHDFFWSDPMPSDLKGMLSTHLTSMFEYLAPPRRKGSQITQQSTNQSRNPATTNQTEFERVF

Work on `COc1cc2c(cc1OC)C(CCc1c[nH]c3ccccc13)N(CC1CCOCC1)CC2` (stereo not drawn) yielded an Activity [1] of 27%, an Activity [2] of 47% and an Activity [3] of 85%. It also gave an Activity [4] of 85%, a Tmax [5] of 25.2 min and a Tmax [6] of 10.8 min. The half-life [7] was 216 min, the half-life [8] was 58.2 min and the Cmax [9] was 9.14 ng/mL. It also gave a Cmax [10] of 620 ng/mL, an AUC(0-t) at 24 h [11] of 16.3 ng·h/mL and an AUC(0-t) at 24 h [12] of 609 ng·h/mL. The AUC(0-t) at 24 h [13] was 604 ng·h/mL, the clearance [14] was 140 mL/min/kg and the bioavailability [15] was 50.4%. For the same molecule, the bioavailability [16] was 0.67%, the Kp at 24 h [17] was 1.9 and the Kp at 24 h [18] was 2.2. For the same molecule, the Activity (HeLa [19]) was “Active”, the Activity (HeLa [20]) was “Active” and the Activity (HeLa [21]) was “Active”. The Activity (HeLa [22]) was “Active”, the Activity (HeLa [23]) was “Active” and the Activity (HeLa [24]) was “Active”. The Activity (HeLa [25]) was “Active”, the Activity (HeLa [26]) was “Active” and the Activity (HeLa [27]) was “Active”. For the same molecule, the Activity (HeLa [28]) was “Active”, the Activity (HeLa [29]) was “Active” and the Activity (HeLa [30]) was “Active”. The Activity (HeLa [31]) was “Active”, the Activity (HeLa [32]) was “Active” and the Activity (HeLa [33]) was “Active”. The Activity (HeLa [34]) was “Active”, the Activity (HeLa [35]) was “Active” and the Activity (HeLa [36]) was “Active”. For the same molecule, the Activity (HeLa [37]) was “Active”, the Activity (HeLa [38]) was “Active” and the Activity (HeLa [39]) was “Active”. The Activity (HeLa [40]) was “Active”, the Activity (HeLa [41]) was “Active” and the Activity (HeLa [42]) was “Active”. The Activity (HeLa [43]) was “Active” and the Vd [44] was 8.66 L/kg.

Work on `COc1ccc2[nH]cc(CCC3c4cc(OC)c(OC)cc4CCN3CC3CCOCC3)c2c1` (stereo not drawn) yielded an Activity [1] of 74%, an Activity [2] of 76% and an Activity [3] of 96%. The Activity [4] was 98%, the AUC(0-t) at 24 h [13] was 21.5 ng·h/mL and the Activity (HeLa [19]) was “Active”. For the same molecule, the Activity (HeLa [20]) was “Active”, the Activity (HeLa [21]) was “Active” and the Activity (HeLa [22]) was “Active”. For the same molecule, the Activity (HeLa [23]) was “Active”, the Activity (HeLa [24]) was “Active” and the Activity (HeLa [25]) was “Active”. For the same molecule, the Activity (HeLa [26]) was “Active”, the Activity (HeLa [27]) was “Active” and the Activity (HeLa [28]) was “Active”. For the same molecule, the Activity (HeLa [29]) was “Active”, the Activity (HeLa [30]) was “Active” and the Activity (HeLa [31]) was “Active”. The Activity (HeLa [32]) was “Active”, the Activity (HeLa [33]) was “Active” and the Activity (HeLa [34]) was “Active”. For the same molecule, the Activity (HeLa [35]) was “Active”, the Activity (HeLa [36]) was “Active” and the Activity (HeLa [37]) was “Active”. The Activity (HeLa [38]) was “Active”, the Activity (HeLa [39]) was “Active” and the Activity (HeLa [40]) was “Active”. The Activity (HeLa [41]) was “Active”, the Activity (HeLa [42]) was “Active” and the Activity (HeLa [43]) was “Active”. The inhibition [45] was “Active”, the Activity (HeLa [46]) was “Active” and the Activity (SH-SY5Y) was “Active”. For the same molecule, the Activity [47] was “Active”, the Activity (HeLa [48]) was “inactive” and the Activity (HeLa [49]) was “inactive”. For the same molecule, the Activity (HeLa [50]) was “inactive”, the Activity (HeLa [51]) was “inactive” and the Vd [44] was 97.5 L/kg.
